Reference: ChEMBL document CHEMBL3885881, “DrugMatrix”

Species: Rattus norvegicus
Assay: DrugMatrix - Regimen: Daily Repeat
Format: toxicity, organism-based, Sprague-Dawley
Set-up: regimen Daily Repeat, gender Male, age 6-8 weeks
Conditions: in vivo, iv, vehicle 100 % SALINE; for ABSOLUTE BASOPHIL / ABSOLUTE EOSINOPHIL / ABSOLUTE LYMPHOCYTE / ABSOLUTE MONOCYTE / ABSOLUTE SEGMENTED NEUTROPHIL / BASOPHIL / EOSINOPHIL / ERYTHROCYTE COUNT / HEMATOCRIT / HEMOGLOBIN / LEUKOCYTE COUNT / LYMPHOCYTE / MEAN CORPUSCULAR HEMOGLOBIN / MEAN CORPUSCULAR HEMOGLOBIN CONCENTRATION / MEAN CORPUSCULAR VOLUME / MONOCYTE / NEUTROPHIL / NUCLEATED RED BLOOD CELLS / PLATELET COUNT: tissue Blood; for ALANINE AMINOTRANSFERASE / ALBUMIN / ALKALINE PHOSPHATASE / ASPARTATE AMINOTRANSFERASE / BLOOD UREA NITROGEN / CARBON DIOXIDE / CHLORIDE / CHOLESTEROL / CREATINE PHOSPHOKINASE / CREATININE / GLUCOSE / LACTATE DEHYDROGENASE / LIPASE / PHOSPHORUS / POTASSIUM / SODIUM / TOTAL BILIRUBIN / TOTAL PROTEIN / URIC ACID: tissue Plasma
[1] = 0 mg/kg, 72 h, dose level Control, time 3 day
[2] = 0 mg/kg, 120 h, dose level Control, time 5 day
[3] = 0.5 mg/kg, 72 h, dose level Low, time 3 day

For `CO[C@@]12[C@H](COC(N)=O)C3=C(C(=O)C(C)=C(N)C3=O)N1C[C@@H]1N[C@@H]12` [MITOMYCIN], the “ABSOLUTE BASOPHIL” value [1] was 0 CELLS/uL, the “ABSOLUTE EOSINOPHIL” value [1] was 0 CELLS/uL and the “ABSOLUTE LYMPHOCYTE” value [1] was 7026.17 CELLS/uL. For the same compound, the “ABSOLUTE MONOCYTE” value [1] was 44.33 CELLS/uL, the “ABSOLUTE SEGMENTED NEUTROPHIL” value [1] was 379.5 CELLS/uL and the BASOPHIL [1] was 0%. The EOSINOPHIL [1] was 0%, the “ERYTHROCYTE COUNT” value [1] was 5.49 x10E6/uL and the HEMATOCRIT [1] was 33.67%. The HEMOGLOBIN [1] was 13.17 G/DL, the “LEUKOCYTE COUNT” value [1] was 7.45 x10E3/uL and the LYMPHOCYTE [1] was 94%. The “MEAN CORPUSCULAR HEMOGLOBIN” value [1] was 24.03 pg, the “MEAN CORPUSCULAR HEMOGLOBIN CONCENTRATION” value [1] was 39.15 G/DL and the “MEAN CORPUSCULAR VOLUME” value [1] was 61.4 fL. For the same compound, the MONOCYTE [1] was 0.67%, the NEUTROPHIL [1] was 5.33% and the “NUCLEATED RED BLOOD CELLS” value [1] was 0.17 /100WBC. The “PLATELET COUNT” value [1] was 1062.5 x10E3/uL, the “ALANINE AMINOTRANSFERASE” value [1] was 53.17 u/L and the ALBUMIN [1] was 4.33 G/DL. For the same compound, the “ALKALINE PHOSPHATASE” value [1] was 339.83 u/L, the “ASPARTATE AMINOTRANSFERASE” value [1] was 83.33 u/L and the “BLOOD UREA NITROGEN” value [1] was 16 mg/dL. For the same compound, the “CARBON DIOXIDE” value [1] was 32.5 mmol/L, the CHLORIDE [1] was 98 MEQ/L and the CHOLESTEROL [1] was 74.67 mg/dL. For the same compound, the “CREATINE PHOSPHOKINASE” value [1] was 284 u/L, the CREATININE [1] was 0.2 mg/dL and the GLUCOSE [1] was 128.67 mg/dL. The “LACTATE DEHYDROGENASE” value [1] was 110.33 u/L, the LIPASE [1] was 9 u/L and the PHOSPHORUS [1] was 11.73 mg/dL. The POTASSIUM [1] was 6.34 MEQ/L, the SODIUM [1] was 143.12 MEQ/L and the “TOTAL BILIRUBIN” value [1] was 0.18 mg/dL. The “TOTAL PROTEIN” value [1] was 6.2 G/DL, the “URIC ACID” value [1] was 1.28 mg/dL and the “ABSOLUTE BASOPHIL” value [2] was 0 CELLS/uL. For the same compound, the “ABSOLUTE EOSINOPHIL” value [2] was 26.67 CELLS/uL, the “ABSOLUTE LYMPHOCYTE” value [2] was 8334.17 CELLS/uL and the “ABSOLUTE MONOCYTE” value [2] was 29.5 CELLS/uL. For the same compound, the BASOPHIL [2] was 0%, the EOSINOPHIL [2] was 0.33% and the “ERYTHROCYTE COUNT” value [2] was 5.44 x10E6/uL. The HEMATOCRIT [2] was 33.77%, the HEMOGLOBIN [2] was 13.05 G/DL and the “LEUKOCYTE COUNT” value [2] was 8.98 x10E3/uL. The LYMPHOCYTE [2] was 92.33%, the “MEAN CORPUSCULAR HEMOGLOBIN” value [2] was 24 pg and the “MEAN CORPUSCULAR HEMOGLOBIN CONCENTRATION” value [2] was 38.67 G/DL. For the same compound, the “MEAN CORPUSCULAR VOLUME” value [2] was 62.05 fL, the MONOCYTE [2] was 0.33% and the NEUTROPHIL [2] was 7%. For the same compound, the “NUCLEATED RED BLOOD CELLS” value [2] was 0 /100WBC, the “PLATELET COUNT” value [2] was 987 x10E3/uL and the “ALANINE AMINOTRANSFERASE” value [2] was 43.5 u/L. The ALBUMIN [2] was 4.08 G/DL, the “ALKALINE PHOSPHATASE” value [2] was 310.17 u/L and the “ASPARTATE AMINOTRANSFERASE” value [2] was 76.67 u/L. The “BLOOD UREA NITROGEN” value [2] was 17 mg/dL, the “CARBON DIOXIDE” value [2] was 30.67 mmol/L and the CHLORIDE [2] was 100.33 MEQ/L. For the same compound, the CHOLESTEROL [2] was 69.33 mg/dL, the “CREATINE PHOSPHOKINASE” value [2] was 218.67 u/L and the CREATININE [2] was 0.22 mg/dL. For the same compound, the GLUCOSE [2] was 155.17 mg/dL, the “LACTATE DEHYDROGENASE” value [2] was 114.67 u/L and the LIPASE [2] was 10.67 u/L. It also gave a PHOSPHORUS [2] of 11.2 mg/dL, a POTASSIUM [2] of 5.5 MEQ/L and an SODIUM [2] of 144.12 MEQ/L. For the same compound, the “TOTAL BILIRUBIN” value [2] was 0.18 mg/dL, the “TOTAL PROTEIN” value [2] was 5.97 G/DL and the “URIC ACID” value [2] was 0.88 mg/dL. The “ABSOLUTE BASOPHIL” value [3] was 0 CELLS/uL, the “ABSOLUTE EOSINOPHIL” value [3] was 0 CELLS/uL and the “ABSOLUTE LYMPHOCYTE” value [3] was 8042 CELLS/uL. For the same compound, the “ABSOLUTE MONOCYTE” value [3] was 56.33 CELLS/uL, the “ABSOLUTE SEGMENTED NEUTROPHIL” value [3] was 601.67 CELLS/uL and the BASOPHIL [3] was 0%. For the same compound, the EOSINOPHIL [3] was 0%, the “ERYTHROCYTE COUNT” value [3] was 5.65 x10E6/uL and the HEMATOCRIT [3] was 34.47%. For the same compound, the HEMOGLOBIN [3] was 13.63 G/DL, the “LEUKOCYTE COUNT” value [3] was 8.7 x10E3/uL and the LYMPHOCYTE [3] was 92.67%. The “MEAN CORPUSCULAR HEMOGLOBIN” value [3] was 24.13 pg, the “MEAN CORPUSCULAR HEMOGLOBIN CONCENTRATION” value [3] was 39.57 G/DL and the “MEAN CORPUSCULAR VOLUME” value [3] was 61.07 fL. For the same compound, the MONOCYTE [3] was 0.67%, the NEUTROPHIL [3] was 6.67% and the “NUCLEATED RED BLOOD CELLS” value [3] was 0 /100WBC. For the same compound, the “PLATELET COUNT” value [3] was 888.67 x10E3/uL, the “ALANINE AMINOTRANSFERASE” value [3] was 51.67 u/L and the ALBUMIN [3] was 4.27 G/DL. The “ALKALINE PHOSPHATASE” value [3] was 324.67 u/L, the “ASPARTATE AMINOTRANSFERASE” value [3] was 87 u/L and the “BLOOD UREA NITROGEN” value [3] was 14.33 mg/dL. For the same compound, the “CARBON DIOXIDE” value [3] was 31 mmol/L, the CHLORIDE [3] was 99 MEQ/L and the CHOLESTEROL [3] was 72 mg/dL. For the same compound, the “CREATINE PHOSPHOKINASE” value [3] was 285 u/L, the CREATININE [3] was 0.26 mg/dL and the GLUCOSE [3] was 136.67 mg/dL. The “LACTATE DEHYDROGENASE” value [3] was 100.67 u/L, the LIPASE [3] was 11.67 u/L and the PHOSPHORUS [3] was 10.87 mg/dL. The POTASSIUM [3] was 5.62 MEQ/L, the SODIUM [3] was 144.1 MEQ/L and the “TOTAL BILIRUBIN” value [3] was 0.1 mg/dL. The “TOTAL PROTEIN” value [3] was 5.9 G/DL and the “URIC ACID” value [3] was 0.63 mg/dL.
